Source: patent US8030321B2, “Benzofuro- and benzothienopyrimidine modulators of the histamine H4 receptor” (Janssen Pharmaceutica, NV, priority 2006, dated 2011)
Where a name gives a salt, the structure may show the parent alone. Read-outs that look alike come from different tables or passages of the source.

Target: T1, human histamine H4 receptor (Homo sapiens, UniProt Q9H3N8)
T1 construct: expressed in transfected cells; host or cells: SK-N-MC cells or COS7 cells, transiently transfected; cell membranes used
T1 sequence (Q9H3N8 whole entry): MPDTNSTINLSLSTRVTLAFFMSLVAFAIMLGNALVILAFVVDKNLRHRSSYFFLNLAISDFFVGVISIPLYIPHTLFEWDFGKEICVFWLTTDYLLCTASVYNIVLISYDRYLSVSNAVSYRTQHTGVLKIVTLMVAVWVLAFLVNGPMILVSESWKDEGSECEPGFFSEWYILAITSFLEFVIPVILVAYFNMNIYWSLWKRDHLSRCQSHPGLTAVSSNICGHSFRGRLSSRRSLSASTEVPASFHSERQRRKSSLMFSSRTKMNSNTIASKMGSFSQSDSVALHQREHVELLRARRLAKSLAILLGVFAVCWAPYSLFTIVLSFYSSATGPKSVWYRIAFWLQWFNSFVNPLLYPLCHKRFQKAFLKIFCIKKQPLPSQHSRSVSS
Experiment: Binding Assay on Recombinant Human Histamine H4 Receptor
Description: Binding Assay on Recombinant Human Histamine H4 Receptor
SK-N-MC cells or COS7 cells were transiently transfected with pH4R and grown in 150 cm^2 tissue culture dishes. Cells were washed with saline solution, scraped with a cell scraper and collected by centrifugation (1000 rpm, 5 min). Cell membranes were prepared by homogenization of the cell pellet in 20 mM Tris-HCl with a polytron tissue homogenizer for 10 sec at high speed. Homogenate was centrifuged at 1000 rpm for 5 min at 4° C. […] The final pellet was resuspended in 50 mM Tris-HCl. Cell membranes were incubated with ^3H-histamine (5-70 nM) in the presence or absence of excess histamine (10,000 nM). […] Membranes were harvested by rapid filtration over Whatman GF/C filters and washed 4 times with ice-cold 50 mM Tris HCl. Filters were then dried, mixed with scintillant and counted for radioactivity. SK-N-MC or COS7 cells expressing human histamine H4 receptor were used to measure the affinity of binding of other compounds and their ability to displace ^3H-ligand binding by incubating the above-described reaction in the presence of various concentrations of inhibitor or compound to be tested.

[1] = competition binding with 3H-histamine (5 nM), membranes of SK-N-MC or COS7 cells expressing human H4 receptor, Cheng-Prusoff, KD 5 nM, average of results obtained, read-out: Ki

`CN1CCCN(c2nc(NCCO)nc3c2oc2ccc(Cl)cc23)CC1` [Example 127, 2-[8-Chloro-4-(4-methyl-[1,4]diazepan-1-yl)-benzo[4,5]furo[3,2-d]pyrimidin-2-ylamino]-ethanol] showed a Ki [1] of 260 nM.

For `Nc1nc(N2CCC(N)C2)c2oc3ccccc3c2n1` (centres unmarked) [Example 21, 4-(3-Amino-pyrrolidin-1-yl)-benzo[4,5]furo[3,2-d]pyrimidin-2-ylamine trifluoroacetic acid salt], the Ki [1] was 5.7 nM.

`Nc1nc(N2CC[C@@H](N)C2)c2oc3ccc(Cl)cc3c2n1` [Example 25, (R)-4-(3-Amino-pyrrolidin-1-yl)-8-chloro-benzo[4,5]furo[3,2-d]pyrimidin-2-ylamine trifluoroacetic acid salt] showed a Ki [1] of 2.4 nM.

For `Nc1nc(N2CCN3CCCC3C2)c2oc3ccc(Br)cc3c2n1` (centres unmarked) [Example 20, 8-Bromo-4-(hexahydro-pyrrolo[1,2-a]pyrazin-2-yl)-benzo[4,5]furo[3,2-d]pyrimidin-2-ylamine trifluoroacetic acid salt], the Ki was 4.7 nM.

In the case of `CN[C@H]1CCN(c2nc(N)nc3c2sc2cc(Br)ccc23)C1` [Example 57, (S)-7-Bromo-4-(3-methylamino-pyrrolidin-1-yl)-benzo[4,5]thieno[3,2-d]pyrimidin-2-ylamine trifluoroacetic acid salt], the Ki [1] is reported as 150 nM.

`Nc1nc(N2C[C@@H]3C[C@H]2CN3)c2oc3cccc(C(F)(F)F)c3c2n1` [Example 94, (S,S)-4-(2,5-Diaza-bicyclo[2.2.1]hept-2-yl)-9-trifluoromethyl-benzo[4,5]furo[3,2-d]pyrimidin-2-ylamine citrate salt] showed a Ki [1] of 880 nM.

`CSCCNc1nc(N2CCN(C)CC2)c2oc3ccc(Cl)cc3c2n1` [Example 123, [8-Chloro-4-(4-methyl-piperazin-1-yl)-benzo[4,5]furo[3,2-d]pyrimidin-2-yl]-(2-methylsulfanyl-ethyl)-amine] gave a Ki [1] of 520 nM.

Work on `Nc1nc(N2CC3CCCNC3C2)c2oc3ccc(Cl)cc3c2n1` (centres unmarked) [Example 9, 8-Chloro-4-(octahydro-pyrrolo[3,4-b]pyridin-6-yl)-benzo[4,5]furo[3,2-d]pyrimidin-2-ylamine] yielded a Ki of 2.1 nM.

`CN[C@@H]1CCN(c2nc(N)nc3c2sc2cc(Br)ccc23)C1` [Example 56, (R)-7-Bromo-4-(3-methylamino-pyrrolidin-1-yl)-benzo[4,5]thieno[3,2-d]pyrimidin-2-ylamine trifluoroacetic acid salt] was tested, and the Ki [1] was 25 nM.

`CN1CCN(c2nc(N)nc3c2oc2ccc(Cl)cc23)CC1` [Example 1, 8-Chloro-4-(4-methyl-piperazin-1-yl)-benzo[4,5]furo[3,2-d]pyrimidin-2-ylamine] gave a Ki [1] of 0.14 nM.

Work on `C[C@@H]1CN(c2nc(N)nc3c2oc2ccc(Cl)cc23)[C@@H](C)CN1` [Example 130, (2S,5R)-8-Chloro-4-(2,5-dimethyl-piperazin-1-yl)-benzo[4,5]furo[3,2-d]pyrimidin-2-ylamine trifluoroacetic acid salt] yielded a Ki [1] of 140 nM.

Compound `Nc1nc(N2C[C@H]3CCCN[C@H]3C2)c2oc3ccc(Cl)cc3c2n1` [Example 82, (R,R)-8-Chloro-4-(octahydro-pyrrolo[3,4-b]pyridin-6-yl)-benzo[4,5]furo[3,2-d]pyrimidin-2-ylamine citrate salt] has a Ki of 21 nM.

For `Nc1nc(NC2CNC2)c2oc3ccc(Cl)cc3c2n1` [Example 111, N^4-Azetidin-3-yl-8-chloro-benzo[4,5]furo[3,2-d]pyrimidine-2,4-diamine trifluoroacetic acid salt], the Ki [1] was 330 nM.

For `Nc1nc(N2CCNCC2)c2oc3ccccc3c2n1` [Example 23, 4-piperazin-1-yl-benzo[4,5]furo[3,2-d]pyrimidin-2-ylamine trifluoroacetic acid salt], the Ki [1] was 21 nM.

`COc1ccc2oc3c(N4CCN(C)CC4)nc(N)nc3c2c1` [Example 89, 8-Methoxy-4-(4-methyl-piperazin-1-yl)-benzo[4,5]furo[3,2-d]pyrimidin-2-ylamine trifluoroacetic acid salt] was tested, and the Ki [1] was 12 nM.

In the case of `Nc1nc(N2CCC[C@H](N)C2)c2oc3ccc(C(F)(F)F)cc3c2n1` [Example 141, (S)-4-(3-Amino-piperidin-1-yl)-8-trifluoromethyl-benzo[4,5]furo[3,2-d]pyrimidin-2-ylamine trifluoroacetic acid salt], the Ki [1] is reported as 43 nM.

`CC(C)CNc1nc(N2CCN(C)CC2)c2oc3ccc(Cl)cc3c2n1` [Example 120, [8-Chloro-4-(4-methyl-piperazin-1-yl)-benzo[4,5]furo[3,2-d]pyrimidin-2-yl]-isobutyl-amine] was tested, and the Ki [1] was 3330 nM.

Work on `Nc1nc(N2C[C@@H]3C[C@H]2CN3)c2oc3c(Cl)cc(Cl)cc3c2n1` [Example 38, (S,S)-6,8-Dichloro-4-(2,5-diaza-bicyclo[2.2.1]hept-2-yl)-benzo[4,5]furo[3,2-d]pyrimidin-2-ylamine trifluoroacetic acid salt] yielded a Ki [1] greater than 10000 nM.

In the case of `CN[C@@H]1CCN(c2nc(N)nc3c2sc2ccc(Br)cc23)C1` [Example 48, (R)-8-Bromo-4-(3-methylamino-pyrrolidin-1-yl)-benzo[4,5]thieno[3,2-d]pyrimidin-2-ylamine hydrochloride salt], the Ki [1] is reported as 2.1 nM.

With `CN(CCN)c1nc(N)nc2c1oc1ccc(Cl)cc12` [Example 96, N^4-(2-Amino-ethyl)-8-chloro-N^4-methyl-benzo[4,5]furo[3,2-d]pyrimidine-2,4-diamine trifluoroacetic acid salt] the Ki [1] was 2.8 nM.

`C[C@H]1CN(c2nc(N)nc3c2oc2ccc(Cl)cc23)CCN1` [Example 133, (S)-8-Chloro-4-(5-methyl-piperazin-1-yl)-benzo[4,5]furo[3,2-d]pyrimidin-2-ylamine trifluoroacetic acid salt] gave a Ki [1] of 5.7 nM.

`COc1ccc2oc3c(N4CCN(C)CC4)nc(NCCO)nc3c2c1` [Example 118, 2-[8-Methoxy-4-(4-methyl-piperazin-1-yl)-benzo[4,5]furo[3,2-d]pyrimidin-2-ylamino]-ethanol] showed a Ki [1] of 200 nM.

`CC1CN(c2nc(N)nc3c2oc2ccc(Cl)cc23)CC(C)N1` (mixture of isomers) [Example 128, 8-Chloro-4-(3,5-dimethyl-piperazin-1-yl)-benzo[4,5]furo[3,2-d]pyrimidin-2-ylamine trifluoroacetic acid salt] was tested, and the Ki [1] was greater than 10000 nM.

`CN(C)C1CCN(c2nc(N)nc3c2oc2c(Cl)cc(Cl)cc23)C1` (centres unmarked) [Example 35, 6,8-Dichloro-4-(3-dimethylamino-pyrrolidin-1-yl)-benzo[4,5]furo[3,2-d]pyrimidin-2-ylamine trifluoroacetic acid salt] was tested, and the Ki [1] was 380 nM.

In the case of `NC[C@H]1CCCN1c1nc(N)nc2c1oc1ccc(Cl)cc12` [Example 79, (R)-4-(2-Aminomethyl-pyrrolidin-1-yl)-8-chloro-benzo[4,5]furo[3,2-d]pyrimidin-2-ylamine trifluoroacetic acid salt], the Ki [1] is reported as greater than 10000 nM.

Work on `CN1CCC(N(C)c2nc(N)nc3c2oc2ccc(F)cc23)C1` (centres unmarked) [Example 41, 8-Fluoro-N^4-methyl-N^4-(1-methyl-pyrrolidin-3-yl)-benzo[4,5]furo[3,2-d]pyrimidine-2,4-diamine trifluoroacetic acid salt] yielded a Ki [1] of 110 nM.

For `COc1cccc2oc3c(N4CCN(C)CC4)nc(N)nc3c12` [Example 88, 9-Methoxy-4-(4-methyl-piperazin-1-yl)-benzo[4,5]furo[3,2-d]pyrimidin-2-ylamine trifluoroacetic acid salt], the Ki [1] was 30 nM.

`CN[C@@H]1CCN(c2nc(N)nc3c2oc2ccc(F)c(F)c23)C1` [Example 148, (R)-8,9-Difluoro-4-(3-methylamino-pyrrolidin-1-yl)-benzo[4,5]furo[3,2-d]pyrimidin-2-ylamine trifluoroacetic acid salt] showed a Ki [1] of 39 nM.

`CN[C@@H]1CCN(c2nc(N)nc3c2oc2cccc(F)c23)C1` [Example 136, (R)-9-Fluoro-4-(3-methylamino-pyrrolidin-1-yl)-benzo[4,5]furo[3,2-d]pyrimidin-2-ylamine trifluoroacetic acid salt] showed a Ki [1] of 10 nM.

With `CN[C@@H]1CCN(c2nc(N)nc3c2oc2cccc(C(F)(F)F)c23)C1` [Example 84, (R)-4-(3-Methylamino-pyrrolidin-1-yl)-9-trifluoromethyl-benzo[4,5]furo[3,2-d]pyrimidin-2-ylamine citrate salt] the Ki [1] was greater than 10000 nM.

`Nc1nc(N2CCC[C@H](N)C2)c2oc3ccc(F)c(F)c3c2n1` [Example 147, (S)-4-(3-Amino-piperidin-1-yl)-8,9-difluoro-benzo[4,5]furo[3,2-d]pyrimidin-2-ylamine trifluoroacetic acid salt] gave a Ki [1] greater than 10000 nM.

`Nc1nc(N2CCNCC2)c2oc3cccc(C(F)(F)F)c3c2n1` [Example 90, 4-piperazin-1-yl-9-trifluoromethyl-benzo[4,5]furo[3,2-d]pyrimidin-2-ylamine citrate salt] showed a Ki [1] of 120 nM.

Work on `CN[C@H]1CCN(c2nc(N)nc3c2oc2ccc(Cl)cc23)C1` [Example 17, (S)-8-Chloro-4-(3-methylamino-pyrrolidin-1-yl)-benzo[4,5]furo[3,2-d]pyrimidin-2-ylamine] yielded a Ki [1] of 2.1 nM.

For `Nc1nc(N2CCNCC2)c2oc3c(Cl)cc(Cl)cc3c2n1` [Example 31, 6,8-Dichloro-4-piperazin-1-yl-benzo[4,5]furo[3,2-d]pyrimidin-2-ylamine trifluoroacetic acid salt], the Ki [1] was 140 nM.

Compound `CN[C@@H]1CCN(c2nc(N)nc3c2oc2ncccc23)C1` [Example 42, (R)-8-(3-Methylamino-pyrrolidin-1-yl)-9-oxa-1,5,7-triaza-fluoren-6-ylamine] has a Ki [1] of 71 nM.
